Test results: patent US7858349B2, “Anti-cancer compounds” (The Regents of the University of Colorado, priority 1999, dated 2010)
Read-outs that look alike come from different tables or passages of the source.

Tests used:
SCLC strain SHP-77 = assay: MTT assay for cell survival, SCLC SHP-77 in vitro; assay type: cell-based, human; conditions: ED50 for killing of SCLC strain SHP-77 in vitro, 4 days, 0 = no detectable activity
PC3 PC cells = assay: Inhibition of PC3 tumor growth in vivo in nude mice; parameters: species or system athymic nude mice; key to PC3 In vivo % inhib.: an IC50 value of “0” represents no detectable anti-cancer activity for a drug in a given cell line; “Stim.” indicates the observation of a stimulatory activity on the growth of the cancer cell line; conditions: percent inhibition of tumor growth in nude mice; prostate cancer; i.p. 5 mg/kg/every second day or 10 mg/kg/every fourth day
Protocol: Compounds having high in vitro cytotoxic activity were tested against implanted tumors in vivo. Athymic nude mice were implanted subcutaneously with suspensions (2 million SHP-77 SCLC cells, 1 million A549 NSCLC cells or 1.5 million PC3 PC cells) in Matrigel suspension. On the eighth day after tumor implantation groups of 5 mice bearing implants were injected intraperitoneally with the compounds being tested at 5 mg/kg/every second day or at 10 mg/kg/every fourth day; control animals were injected with an equal volume of isotonic saline. Less soluble compounds were initially dissolved in dimethyl sulfoxide (DMSO) and diluted with medium. In those cases the control injections contained the same concentration of DMSO. Tumor size was measured with a caliper three times per week. Tumor volume was calculated by the formula: Volume(cc)=3.14×(length)×(width)^2/6 At autopsy tumors were removed and weighed. Tumor inhibition was calculated on both weight and measurement basis. In each Table, an IC50 value of “0” represents no detectable anti-cancer activity for a drug in a given cell line and “Stim.” indicates the observation of a stimulatory activity on the growth of the cancer cell line.

SMILES: O=C(N[C@@H]1CN2CCC1CC2)C(Cc1ccc(OCc2c(Cl)cccc2Cl)cc1)NC(=O)C(c1ccccc1)C1CCCCC1 (single isomer, unassigned) [M-1550 #1]
- IC50 (SCLC strain SHP-77; read-out: SCLC SHP-77 IC50): 2.5 µM
- PC3 In vivo % inhib. (PC3 PC cells): 36%

SMILES: O=C(N[C@@H]1CN2CCC1CC2)C(Cc1ccc(OCc2c(Cl)cccc2Cl)cc1)NC(=O)C(c1ccccc1)C1CCCCC1 (single isomer, unassigned) [M-1550 #2]
- IC50 (SCLC strain SHP-77; read-out: SCLC SHP-77 IC50): 4 µM
- PC3 In vivo % inhib. (PC3 PC cells): Stim.

SMILES: CC1(C)CC(NC(=O)C(NC(=O)C=Cc2c(F)c(F)c(F)c(F)c2F)C2Cc3ccccc3C2)CC(C)(C)N1 (centres unmarked) [Analog M-1052, F5c-Igl-Atmp]
- IC50 (SCLC strain SHP-77; read-out: SHP-77 In vitro IC50): 7.3 µM
- PC3 In vivo % inhib. (PC3 PC cells): 27%

SMILES: CC1(C)CC(NC(=O)C(Cc2c(F)c(F)c(F)c(F)c2F)NC(=O)C=Cc2c(F)c(F)c(F)c(F)c2F)CC(C)(C)N1 (centres unmarked) [Analog M-1054, F5c-F5F-Atmp]
- IC50 (SCLC strain SHP-77; read-out: SHP-77 In vitro IC50): 4.6 µM
- PC3 In vivo % inhib. (PC3 PC cells): 47%

SMILES: CC1(C)CC(NC(=O)C(Cc2ccc(OCc3c(Cl)cccc3Cl)cc2)NS(=O)(=O)c2c(F)c(F)c(F)c(F)c2F)CC(C)(C)N1 (centres unmarked) [Analog M-1092, F5BS-OC2Y-Atmp]
- IC50 (SCLC strain SHP-77; read-out: SHP-77 In vitro IC50): 14 µM
- PC3 In vivo % inhib. (PC3 PC cells): Stim.

SMILES: CC1(C)CC(NC(=O)C(Cc2ccc(OCc3c(Cl)cccc3Cl)cc2)NC(=S)Nc2c(F)c(F)c(F)c(F)c2F)CC(C)(C)N1 (centres unmarked) [Analog M-1094, F5PT-OC2Y-Atmp]
- IC50 (SCLC strain SHP-77; read-out: SHP-77 In vitro IC50): 3.2 µM
- PC3 In vivo % inhib. (PC3 PC cells): 52%

SMILES: CC1(C)CC(NC(=O)[C@@H](Cc2ccc(OCc3c(Cl)cccc3Cl)cc2)NC(=O)/C=C/c2c(F)c(F)c(F)c(F)c2F)CC(C)(C)N1 [Analog M-1108, F5c-D-OC2Y-Atmp]
- IC50 (SCLC strain SHP-77; read-out: SHP-77 In vitro IC50): > 60 µM
- PC3 In vivo % inhib. (PC3 PC cells): 46%

SMILES: CC1(C)CC(NC(=O)C(Cc2ccc(C#N)cc2)NC(=O)C=Cc2c(F)c(F)c(F)c(F)c2F)CC(C)(C)N1 (centres unmarked) [Analog M-1110, F5c-PCNF-Atmp]
- IC50 (SCLC strain SHP-77; read-out: SHP-77 In vitro IC50): 0.9 µM
- PC3 In vivo % inhib. (PC3 PC cells): 54%

SMILES: CC1(C)CC(NC(=O)C(Cc2ccc([N+](=O)[O-])cc2)NC(=O)C=Cc2c(F)c(F)c(F)c(F)c2F)CC(C)(C)N1 (centres unmarked) [Analog M-1112, F5c-PNF-Atmp]
- IC50 (SCLC strain SHP-77; read-out: SHP-77 In vitro IC50): 30 µM
- PC3 In vivo % inhib. (PC3 PC cells): 24%

SMILES: CC1(C)CC(NC(=O)C(Cc2c[nH]c3ccccc23)NC(=O)C=Cc2c(F)c(F)c(F)c(F)c2F)CC(C)(C)N1 (centres unmarked) [Analog M-1114, F5c-Trp-Atmp]
- IC50 (SCLC strain SHP-77; read-out: SHP-77 In vitro IC50): > 60 µM
- PC3 In vivo % inhib. (PC3 PC cells): 28%

SMILES: CC1(C)CC(NC(=O)C(Cc2ccc(OCc3c(Cl)cccc3Cl)cc2)NC(=O)C(C2CCCCC2)C2CCCCC2)CC(C)(C)N1 (centres unmarked) [Analog M-1116, Dca-OC2Y-Atmp]
- IC50 (SCLC strain SHP-77; read-out: SHP-77 In vitro IC50): 7.5 µM
- PC3 In vivo % inhib. (PC3 PC cells): 19%

SMILES: CC1(C)CC(NC(=O)C(Cc2ccc(Br)cc2)NC(=O)C=Cc2c(F)c(F)c(F)c(F)c2F)CC(C)(C)N1 (centres unmarked) [Analog M-1144, F5c-PBF-Atmp]
- IC50 (SCLC strain SHP-77; read-out: SHP-77 In vitro IC50): 7.2 µM
- PC3 In vivo % inhib. (PC3 PC cells): 20%

SMILES: CC1(C)CC(NC(=O)C(Cc2ccc(F)cc2)NC(=O)C=Cc2ccco2)CC(C)(C)N1 (centres unmarked) [Analog M-1154, 2-Fa-PFF-Atmp]
- IC50 (SCLC strain SHP-77; read-out: SHP-77 In vitro IC50): > 60 µM
- PC3 In vivo % inhib. (PC3 PC cells): Stim

SMILES: O=C(C=Cc1c(F)c(F)c(F)c(F)c1F)NC(Cc1ccc(F)cc1)C(=O)NC1CCN(Cc2ccccc2)CC1 (centres unmarked) [Analog M-1156, F5c-PFF-Abzp]
- IC50 (SCLC strain SHP-77; read-out: SHP-77 In vitro IC50): 7.5 µM
- PC3 In vivo % inhib. (PC3 PC cells): 56%

SMILES: CC1(C)CC(NC(=O)C(Cc2ccc(-c3ccccc3)cc2)NC(=O)C(c2ccc(Cl)cc2)c2ccc(Cl)cc2)CC(C)(C)N1 (centres unmarked) [Analog M-1244, Bcpa-Bip-Atmp]
- IC50 (SCLC strain SHP-77; read-out: SHP-77 In vitro IC50): 1.3 µM
- PC3 In vivo % inhib. (PC3 PC cells): 59%

SMILES: O=C(NC(Cc1ccc2ccccc2c1)C(=O)N1CCC(N2CCCCC2)CC1)C(c1ccc(Cl)cc1)c1ccc(Cl)cc1 (centres unmarked) [Analog M-1246, Bcpa-Nal-Pipp]
- IC50 (SCLC strain SHP-77; read-out: SHP-77 In vitro IC50): 3.6 µM
- PC3 In vivo % inhib. (PC3 PC cells): Stim

SMILES: O=C(C=Cc1c(F)c(F)c(F)c(F)c1F)NC(Cc1ccc(-c2ccccc2)cc1)C(=O)N1CCN(c2ccccn2)CC1 (centres unmarked) [Analog M-1258, F5c-Bip-Pypz]
- IC50 (SCLC strain SHP-77; read-out: SHP-77 In vitro IC50): 48 µM
- PC3 In vivo % inhib. (PC3 PC cells): 10%

SMILES: O=C(/C=C/c1c(F)c(F)c(F)c(F)c1F)N[C@@H](Cc1ccc(OCc2c(Cl)cccc2Cl)cc1)C(=O)N1CCN(c2cccc(Cl)c2Cl)CC1 [Analog M-1578, F5c-OC2Y-Dcpp]
- PC3 In vivo % inhib. (PC3 PC cells): Stim.
